Data on 19 compounds can be found in patent US20260217708A1, “FUSED BENZAZEPINE DERIVATIVES FOR USE IN THE TREATMENT OF CANCER AND EPILEPSY” (UCB BIOPHARMA SRL, priority 2023, published 2026).

The target of test [1] is T1, system Xc^− (Homo sapiens, UniProt Q9UPY5).
T1 sequence (Q9UPY5 1-501): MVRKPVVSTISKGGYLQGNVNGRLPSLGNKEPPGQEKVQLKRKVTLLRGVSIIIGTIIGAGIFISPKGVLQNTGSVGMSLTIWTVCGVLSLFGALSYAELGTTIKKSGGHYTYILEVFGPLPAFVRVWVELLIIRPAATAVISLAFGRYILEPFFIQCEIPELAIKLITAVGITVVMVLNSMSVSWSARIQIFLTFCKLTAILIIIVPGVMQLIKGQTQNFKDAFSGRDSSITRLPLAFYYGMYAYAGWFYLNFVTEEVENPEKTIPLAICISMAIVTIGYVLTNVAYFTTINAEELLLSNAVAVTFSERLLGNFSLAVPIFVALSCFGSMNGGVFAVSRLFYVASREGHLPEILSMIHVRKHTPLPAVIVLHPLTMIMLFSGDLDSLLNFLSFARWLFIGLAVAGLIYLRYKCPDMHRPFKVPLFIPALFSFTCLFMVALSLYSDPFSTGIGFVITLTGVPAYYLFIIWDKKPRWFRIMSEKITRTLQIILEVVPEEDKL
T1 sequence (P08195 1-529 partner): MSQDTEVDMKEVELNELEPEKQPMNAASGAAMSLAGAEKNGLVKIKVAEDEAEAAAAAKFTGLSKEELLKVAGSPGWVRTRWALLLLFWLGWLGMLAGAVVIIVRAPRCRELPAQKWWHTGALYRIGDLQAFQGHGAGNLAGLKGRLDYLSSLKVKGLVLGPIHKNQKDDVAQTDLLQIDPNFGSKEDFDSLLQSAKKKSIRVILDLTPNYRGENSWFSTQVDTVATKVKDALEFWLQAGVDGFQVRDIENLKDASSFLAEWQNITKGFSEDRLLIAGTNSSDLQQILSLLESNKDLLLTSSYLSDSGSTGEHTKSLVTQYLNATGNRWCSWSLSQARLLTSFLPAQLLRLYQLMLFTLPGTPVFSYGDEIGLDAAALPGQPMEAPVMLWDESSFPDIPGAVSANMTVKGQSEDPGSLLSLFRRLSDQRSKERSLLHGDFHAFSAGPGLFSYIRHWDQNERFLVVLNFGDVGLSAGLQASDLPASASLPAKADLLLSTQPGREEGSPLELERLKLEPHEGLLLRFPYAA
Put plainly: [^14C]L-Cystine uptake assay. Details: endogenous in cells; host or cells: H4 cells. The conditions noted are these: H4 cells, sodium-free HEPES buffer, 0.5 μM L-[14C]Cystine and 4.5 μM L-Cystine, 1 hour at 37° C.; for IC50: read-out: pIC50 [^14C] L-Cystine uptake assay (converted). It counts as cell-based. The essentials: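 H4 cells at 5×10^4 cells/well in sodium-free HEPES buffer were preincubated 15 min with compounds (1% DMSO). Uptake of 0.5 μM [14C]L-cystine plus 4.5 μM unlabelled L-cystine ran 1 hour at 37° C on scintillating plates. IC50 was set between 1% DMSO and 50 μM Erastin controls and expressed as pIC50.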

For test [2], the target named is T1, system Xc^−. Put plainly: Cystine-induced glutamate release assay. The test is classed as cell-based. Details: endogenous in cells; host or cells: H4 cells. The conditions noted are these: H4 cells, sodium-free HEPES buffer, 50 μM L-Cystine, 2 hours, Amplex Red glutamate readout; for IC50: read-out: pIC50 Cystine-induced glutamate release assay (converted). The essentials: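 H4 cells in sodium-free HEPES buffer (pH 7.4), 2 days after plating; glutamate release induced with 50 μM L-cystine plus compound (1% DMSO), 2 h at 37 °C. Supernatant glutamate measured by Amplex Red fluorescence; IC50/pIC50 derived between 1% DMSO and 50 μM erastin controls.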

As for `N#Cc1c(F)ccc2c1-c1cccnc1CC(=O)N2CC(=O)Nc1ccc(C(F)(F)F)cc1` [#68, 2-(11-cyano-10-fluoro-6-oxo-5H-pyrido[2,3-d][1]benzazepin-7-yl)-N-[4-(trifluoromethyl)-phenyl]acetamide], the IC50 at system Xc^− [1] and at system Xc^− [2] was 39.8 to 100 nM in each case.

With `COCCOc1nc(C)cc2c1-c1cccnc1C(C)C(=O)N2CC(=O)Nc1ccc(C(F)(F)F)cc1` (single isomer, unassigned) [#162, 2-[3-(2-methoxyethoxy)-5,10-dimethyl-9-oxo-4,8,12-triazatricyclo[9.4.0.0^2,7]pentadeca-1(11),2(7),3,5,12,14-hexaen-8-yl]-N-[4-(trifluoromethyl)phenyl]acetamide], the IC50 at system Xc^− [1] and on system Xc^− [2] was 15.8 to 39.8 nM throughout.

In the case of `Cc1cc2c(cn1)-c1ccc(Cl)cc1CC(=O)N2CC(=O)Nc1ccc(C(F)(F)F)cc1` [#44, 2-(9-chloro-3-methyl-6-oxo-7H-pyrido[4,3-d][3]benzazepin-5-yl)-N-[4-(trifluoromethyl)phenyl]acetamide], the IC50 at system Xc^− [1] and on system Xc^− [2] was 39.8 to 100 nM throughout.

On to `COc1cc2c(c(=O)n1C)-c1ccccc1C(C)C(=O)N2CC(=O)Nc1ccc(C(F)F)cc1` (centres unmarked) [#362, N-[4-(difluoromethyl)phenyl]-2-(3-methoxy-2,7-dimethyl-1,6-dioxo-7H-pyrido[4,3-d][3]benzazepin-5-yl)acetamide], for which the IC50 on system Xc^− [1] was less than 15.8 nM; at system Xc^− [2], 15.8 to 39.8 nM.

With `Cc1cc2c(cn1)-c1ccc(F)cc1C(C)C(=O)N2CC(=O)Nc1ccc(Cl)c(F)c1` (single isomer, unassigned) [#324, N-(4-chloro-3-fluoro-phenyl)-2-[9-fluoro-3,7-dimethyl-6-oxo-7H-pyrido[3,4-a][3]benzazepin-5-yl]acetamide], the IC50 on system Xc^− [1] and on system Xc^− [2] was less than 15.8 nM throughout.

`Cc1cc2c(cc1C)N(CC(=O)Nc1ccc(Cl)c(F)c1)C(=O)Cc1ncccc1-2` [#3, N-(4-chloro-3-fluoro-phenyl)-2-(9,10-dimethyl-6-oxo-5-H-pyrido[2,3-d][1]benzazepin-7-yl)acetamide]: the IC50 was 39.8 to 100 nM at system Xc^− [1] and 100 to 501 nM at system Xc^− [2].

In the case of `CC1C(=O)N(CC(=O)Nc2ccc(Cl)c(F)c2)c2cc(C(F)(F)F)nc(O)c2-c2ccccc21` (single isomer, unassigned) [#397, N-(4-chloro-3-fluoro-phenyl)-2-[1-hydroxy-7-methyl-6-oxo-3-(trifluoromethyl)-7H-pyrido[3,4-a][3]benzazepin-5-yl]acetamide], the IC50 at system Xc^− [1] and on system Xc^− [2] was 39.8 to 100 nM throughout.

For the compound `COc1nc(C)cc2c1-c1cccnc1CC(=O)N2CC(=O)Nc1ccc(C2CC2)cc1` [#80, N-(4-cyclopropylphen-yl)-2-(3-methoxy-5-methyl-9-oxo-4,8,12-triazatricyclo[9.4.0.0^2.7]pentadeca-1(11),2(7),3,5,12,14-hexaen-8-yl)-acetamide], the IC50 at system Xc^− [1] and at system Xc^− [2] was 15.8 to 39.8 nM throughout.

For `CC1C(=O)N(CC(=O)Nc2ccc(C(F)F)cc2)c2cc(N3CC[C@@H]3CO)nc(F)c2-c2cccnc21` (stereo partly drawn) [#273, N-[4-(difluoromethyl)phenyl]-2-[3-fluoro-5-[(2R)-2-(hydroxymethyl)azetidin-1-yl]-10-methyl-9-oxo-4,8,12-triazatricyclo[9.4.0.0^2,7]pentadeca-1(15),2,4,6,11,13-hexaen-8-yl]acetamide], the IC50 on system Xc^− [1] and on system Xc^− [2] was less than 15.8 nM each time.

With `O=C(CN1C(=O)Cc2cc(F)ccc2-c2c1ccnc2Cl)Nc1ccc(C(F)(F)F)cc1` (single isomer, unassigned) [#193, Atropisomer aR or aS of 2-(1-chloro-9-fluoro-6-oxo-7H-pyrido[4,3-d][3]benzazepin-5-yl)-N-[4-(trifluoromethyl)phenyl]acetamide], at system Xc^− [1], the “pIC50 [^14C] L-Cystine uptake assay” value was “D (plC50 > about 7.80)”. Further, the “pIC50 Cystine-induced glutamate release assay” value against system Xc^− [2] is on record as “C (about 7.40 < pIC50 ≤ about 7.80)”.

With `O=C(CN1C(=O)Cc2ccccc2-c2cnccc21)Nc1ccc(C(F)(F)F)cc1` [#17, 2-(6-oxo-7H-pyrido [4,3-d][3]benzazepin-5-yl)-N-[4-(trifluoro-methyl)phenyl] acetamide], the IC50 on system Xc^− [1] and at system Xc^− [2] was 100 to 501 nM in each case.

For the compound `Cc1cc2c(c(Cl)n1)-c1cc(C)nn1CC(=O)N2CC(=O)Nc1ccc(C(F)(F)F)cc1` [#105, 2-(14-chloro-4,12-dimethyl-8-oxo-5,6,9,13-tetrazatricyclo[8.4.0.0^2,6]tetradeca-1(14),2,4,10,12-pentaen-9-yl)-N-[4-(trifluoromethyl)phenyl]acetamide], the IC50 on system Xc^− [1] and at system Xc^− [2] was 39.8 to 100 nM in each case.

As to `Cc1c2c(cn(C)c1=O)N(CC(=O)Nc1ccc(C(F)F)cc1)C(=O)C(C)c1ccccc1-2` (single isomer, unassigned) [#368, N-[4-(difluoromethyl)phenyl]-2-[1,3,7-trimethyl-2,6-dioxo-7H-pyrido[4,3-a][3]benzazepin-5-yl]acetamide], the IC50 at system Xc^− [1] and on system Xc^− [2] was less than 15.8 nM in each case.

Turning to `Cc1cc2c(c(Cl)n1)-c1ccnn1CC(=O)N2CC(=O)Nc1ccc(C(F)(F)F)cc1` [#100, 2-(14-chloro-12-methyl-8-oxo-5,6,9,13-tetrazatricyclo[8.4.0.0^2,6]tetradeca-1(14),2,4,10,12-pentaen-9-yl)-N-[4-(trifluoromethyl)phenyl]acetamide], the IC50 on system Xc^− [1] and on system Xc^− [2] was 39.8 to 100 nM in each case.

`CC1C(=O)N(CC(=O)Nc2ccc(C(F)F)cc2)c2cc(N3CC(F)C3)nc(F)c2-c2cccnc21` (single isomer, unassigned) [#274, N-[4-(difluoromethyl)phenyl]-2-[3-fluoro-5-(3-fluoroazetidin-1-yl)-10-methyl-9-oxo-4,8,12-triazatricyclo[9.4.0.0^2,7]pentadeca-1(15),2,4,6,11,13-hexaen-8-yl]acetamide]: the IC50 on system Xc^− [1] and on system Xc^− [2] was less than 15.8 nM each time.

Regarding `CC1C(=O)N(CC(=O)Nc2ccc(Cl)c(F)c2)c2cc(N3CC4(CC4)C3)nc(F)c2-c2cccnc21` (single isomer, unassigned) [#267, 2-[5-(5-azaspiro[2.3]hexan-5-yl)-3-fluoro-10-methyl-9-oxo-4,8,12-triazatricyclo[9.4.0.0^2,7]pentadeca-1(15),2,4,6,11,13-hexaen-8-yl]-N-(4-chloro-3-fluoro-phenyl)acetamide], the IC50 is 39.8 to 100 nM on system Xc^− [1] and 15.8 to 39.8 nM at system Xc^− [2].

For `Cc1cc2c(c(F)n1)-c1ncc(F)cc1C(C)C(=O)N2CC(=O)Nc1ccc(Cl)c(F)c1` (single isomer, unassigned) [#303, N-(4-chloro-3-fluoro-phenyl)-2-[5,15-difluoro-8,13-dimethyl-9-oxo-3,10,14-triazatricyclo[9.4.0.0^2,7]pentadeca-1(15),2,4,6,11,13-hexaen-10-yl]acetamide], the IC50 at system Xc^− [1] was 15.8 to 39.8 nM; on system Xc^− [2], less than 15.8 nM.

Regarding `C[C@@H]1C(=O)N(CC(=O)Nc2ccc(C(F)F)cc2)c2cc(N3CC[C@@H](F)C3)nc(F)c2-c2cccnc21` (single isomer, unassigned) [#277, N-[4-(difluoromethyl)phenyl]-2-[3-fluoro-5-[3-fluoropyrrolidin-1-yl]-10-methyl-9-oxo-4,8,12-triazatricyclo[9.4.0.0^2,7]pentadeca-1(15),2,4,6,11,13-hexaen-8-yl]acetamide], the IC50 on system Xc^− [1] and on system Xc^− [2] was 15.8 to 39.8 nM each time.

Consider `Cc1cc2c(c(F)n1)-c1cccnc1C(C)C(=O)N2CC(=O)Nc1ccc(Cl)c(F)c1` (centres unmarked) [#90, N-(4-chloro-3-fluoro-phenyl)-2-(3-fluoro-5,10-dimethyl-9-oxo-4,8,12-triazatricyclo[9.4.0.0^2,7]pentadeca-1(11),2(7),3,5,12,14-hexaen-8-yl)acetamide], for which the values for the IC50 on system Xc^− [1] and on system Xc^− [2] were less than 15.8 nM and 15.8 to 39.8 nM, respectively.
